Results: patent US12115202B1, “Method of preventing cadmium-induced liver toxicity using a plant product derived from Achillea millefolium L” (KING FAISAL UNIVERSITY, priority 2024, dated 2024)

Tests used:
[1] = Changes in body weight of rats in CdCl2-induced hepatic toxicity study; format: in vivo, rat; conditions: male Wistar rats, n=8 per group; AEO 250 mg/kg 2 hours before saline or CdCl2 6.5 mg/kg i.p., daily for 7 days; mean ± SD
Experimental: (§1) To study the hepatic protective activity of Achillea millefolium essential oil (AEO) on CdCl2-induced hepatic toxicity, male Wistar rats (weighing, 180 g-200 g) were purchased from the Experimental Animal Research Centre, King Saud University, Riyadh, KSA. The animals were randomly divided into four groups (n=8 per group). For Group I (the Control group), the animals were pre-administered with 0.9% NaCl (physiological saline), 2 hours before the injection of 0.9% NaCl (physiological saline) i.p., daily for 7 days. For Group II (the CdCl2 group), the animals were pre-administered with 0.9% NaCl (physiological saline) 2 hours before injection of 6.5 mg/kg CdCl2 i.p. daily for 7 days. For Group III (the AEO group), the animals were pre-administered with 250 mg/kg AEO 2 hours before the injection of 0.9% NaCl (physiological saline) i.p. daily for 7 days. For Group IV (the AEO+CdCl2 group), the animals were pre-administered with 250 mg/kg AEO 2 hours before the injection of 6.5 mg/kg CdCl2 i.p. daily for 7 days. Twenty-four hours after the last treatment, the animals were killed and the liver was quickly removed and weighed.

[2] = Determination of Cd concentration in liver tissue; format: in vivo, rat
Experimental: as §1
Cd concentration was measured using conventional methods. Liver tissue was weighed and dried in an oven for 4 hours at 250° C. […] Cd concentrations were determined by spectrophotometry at […]. The Cd concentrations are expressed as μg/g of wet liver tissue.

[3] = system: CdCl2-induced hepatic toxicity; assay: Determination of hepatic oxidative stress markers; format: in vivo, rat; conditions: rats, CdCl2 vs control, AEO 250 mg/kg + CdCl2 vs CdCl2 group
Experimental: as §1
(§2) Parts of the frozen liver samples (50 mg) were homogenized in 1 ml ice-cold phosphate buffer saline containing a protease/phosphatase inhibitor cocktail. The homogenates were centrifuged at 10,000×g for 15 minutes at 4° C. and the supernatants were isolated to new tubes. The tubes were kept at −20° C. until further biochemical analysis.
Lipid peroxidation was assessed according to the amount of malondialdehyde (MDA). The activities of catalase, superoxide dismutase (SOD) glutathione peroxidase (GSH-Px) and glutathione reductase (GSH-R) were estimated using kits, according to manufacturer protocol.

NFκB = assay: Hepatic NFκB gene expression (qPCR); format: in vivo; conditions: rat liver, qPCR relative to β-actin; Cd vs control; AEO with Cd vs Cd alone group; FIG. 3D
Experimental: To study the hepatic protective activity of Achillea millefolium essential oil (AEO) on CdCl2-induced hepatic toxicity, male Wistar rats (weighing, 180 g-200 g) were purchased from the Experimental Animal Research Centre, King Saud University, Riyadh, KSA. The animals were randomly divided into four groups (n=8 per group). For Group I (the Control group), the animals were pre-administered with 0.9% NaCl (physiological saline), 2 hours before the injection of 0.9% NaCl (physiological saline) i.p., daily for 7 days. For Group II (the CdCl2 group), the animals were pre-administered with 0.9% NaCl (physiological saline) 2 hours before injection of 6.5 mg/kg CdCl2 i.p. daily for 7 days. […]
Gene expression for the Nrf2 pathway, including nuclear factor erythroid 2-related factor 2 (Nrf2), hemeoxygenase-1 (HO-1), NAD(P)H: quinone oxidoreductase 1 (NQO1) and Nuclear factor kappa B (NFκB) were quantified via real-time PCR (qPCR) consuming the primers' sequences, shown in Table 1, in agreement with the method described elsewhere. […] Relative gene expression data were calculated as mentioned earlier by the Livak and Schmittgen method (2-ΔΔCq2) and presented as a fold change. Target gene expressions were assessed and related to the reference gene (β-actin).

[4] = system: CdCl2-induced hepatic toxicity; assay: Liver function test (serum enzymes, ELISA kits); format: in vivo, rat; conditions: rats, Cd vs control group, AEO 250 mg/kg + CdCl2 vs CdCl2 group
Experimental: as §1
The activities of alanine transaminase (ALT), aspartate aminotransferase (AST), alkaline phosphatase (ALP), lactate dehydrogenase (LDH) enzymes and γ-glutamyltransferase1 (γGTT1) were determined using ELISA kits.

[5] = system: CdCl2-induced hepatic toxicity; assay: Determination of liver inflammatory markers; format: in vivo, rat; conditions: rats, CdCl2 vs control, AEO 250 mg/kg + CdCl2 vs CdCl2 group
Experimental: as §1, §2
Inflammation markers including tumor necrosis factor alpha (TNF-α), interleukin 1β (IL-1β), intracellular adhesion molecule-1 (ICAM-1) and myeloperoxidase (MPO) were measured according to the manufacturer protocol of the Kit.

Nrf2/HO-1/NQO1 = assay: Hepatic Nrf2 pathway gene expression (qPCR); format: in vivo; conditions: rat liver, qPCR relative to β-actin, Cd vs control, AEO + CdCl2 vs CdCl2 group
Experimental: To study the hepatic protective activity of Achillea millefolium essential oil (AEO) on CdCl2-induced hepatic toxicity, male Wistar rats (weighing, 180 g-200 g) were purchased from the Experimental Animal Research Centre, King Saud University, Riyadh, KSA. The animals were randomly divided into four groups (n=8 per group). For Group I (the Control group), the animals were pre-administered with 0.9% NaCl (physiological saline), 2 hours before the injection of 0.9% NaCl (physiological saline) i.p., daily for 7 days. For Group II (the CdCl2 group), the animals were pre-administered with 0.9% NaCl (physiological saline) 2 hours before injection of 6.5 mg/kg CdCl2 i.p. daily for 7 days. For Group III (the AEO group), the animals were pre-administered with 250 mg/kg AEO 2 hours before the injection of 0.9% NaCl (physiological saline) i.p. daily for 7 days. For Group IV (the AEO+CdCl2 group), the animals were pre-administered with 250 mg/kg AEO 2 hours before the injection of 6.5 mg/kg CdCl2 i.p. daily for 7 days. […]
Gene expression for the Nrf2 pathway, including nuclear factor erythroid 2-related factor 2 (Nrf2), hemeoxygenase-1 (HO-1), NAD(P)H: quinone oxidoreductase 1 (NQO1) and Nuclear factor kappa B (NFκB) were quantified via real-time PCR (qPCR) consuming the primers' sequences, shown in Table 1, in agreement with the method described elsewhere. Briefly, RNA was isolated and purified using a Trizol reagent kit (Invitrogen, Carlsbad, CA, USA), then a reverse transcription polymerase chain reaction (RT-PCR) kit (TaKaRa, Kusatsu, Shiga, Japan) following the manufacturer's procedures. qPCR was applied using a SYBR ExScript RT-PCR kit, and quantification examinations were accomplished via an Opticon-2 Real-4 time PCR reactor (MJ Research, Capital Court, Reno, NV, USA). qPCR results were obtained using Step PE Applied Biosystems (Waltham, MA, USA) software. Relative gene expression data were calculated as mentioned earlier by the Livak and Schmittgen method (2-ΔΔCq2) and presented as a fold change. Target gene expressions were assessed and related to the reference gene (β-actin).

## [Cl][Cd][Cl] [CdCl2]
[1]
  Final weight: 190.84 ± 4.41
[2]; male Wistar rats, AEO 250 mg/kg 2 hours before saline or CdCl2 6.5 mg/kg i.p., daily for 7 days, liver 24 h after last treatment, mean ± SD
  Cd concentration (μg/g liver tissue): 0.74 ± 0.023 μg/g liver tissue
[2]; rats, CdCl2 vs control group, AEO prior to CdCl2 vs CdCl2 group, p<0.05
  Concentration of Cd in hepatic tissue (change): significantly increased
[3]; FIG. 2A
  hepatic MDA level (lipid peroxidation): augmented
[3]; FIG. 2B
  hepatic GSH-Px activity: considerably declined
[3]; FIG. 2C
  hepatic GSH-R activity: considerably declined
[3]; FIG. 2D
  hepatic SOD activity: considerably declined
[3]; FIG. 2E
  hepatic CAT (catalase) activity: considerably declined
NFκB
  NFκB mRNA expression level: significantly augmented
[4]; FIG. 1A
  serum ALT level: increase
[4]; FIG. 1B
  serum AST level: increase
[4]; FIG. 1C
  serum ALP level: increase
[4]; FIG. 1D
  serum LDH level: increase
[4]; FIG. 1E
  serum γGTT1 level: increase
[5]; FIG. 4A
  TNF-α hepatic level: augmented
[5]; FIG. 4B
  IL-1β hepatic level: augmented
[5]; FIG. 4C
  MPO hepatic level: augmented
[5]; FIG. 4D
  ICAM-1 hepatic level: augmented
Nrf2/HO-1/NQO1; FIG. 3A
  Nrf2 mRNA expression level: decreased
Nrf2/HO-1/NQO1; FIG. 3B
  HO-1 mRNA expression level: decreased
Nrf2/HO-1/NQO1; FIG. 3C
  NQO1 mRNA expression level: decreased
